Drawing on US11512090B2, “Muscarinic acetylcholine M1 receptor antagonists” (PIPELINE THERAPEUTICS, INC., priority 2018, dated 2022), this text covers IC50 for 23 compounds.

SMILES strings stand for the structures. Read-outs that look alike come from different tables or passages of the source.

Holding throughout (assay type): cell-based
One experiment concerns the target T1, human M1 receptor (Homo sapiens, UniProt P11229).
T1 sequence (P11229 1-460): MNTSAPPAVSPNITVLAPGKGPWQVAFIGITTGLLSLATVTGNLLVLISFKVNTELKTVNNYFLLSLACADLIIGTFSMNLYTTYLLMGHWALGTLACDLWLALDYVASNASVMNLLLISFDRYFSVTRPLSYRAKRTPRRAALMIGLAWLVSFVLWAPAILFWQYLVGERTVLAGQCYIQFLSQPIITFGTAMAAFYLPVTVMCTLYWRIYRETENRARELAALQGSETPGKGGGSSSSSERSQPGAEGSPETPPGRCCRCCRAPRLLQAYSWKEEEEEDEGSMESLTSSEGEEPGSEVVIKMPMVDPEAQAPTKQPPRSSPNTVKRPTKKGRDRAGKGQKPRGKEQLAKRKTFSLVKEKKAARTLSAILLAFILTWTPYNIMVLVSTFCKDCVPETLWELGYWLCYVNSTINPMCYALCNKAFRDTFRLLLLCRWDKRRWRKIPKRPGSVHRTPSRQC
As to the kind of experiment: In vitro functional assay of muscarinic acetylcholine receptor activity (aequorin calcium flux, antagonist mode vs EC80 acetylcholine), M1. As for the experimental part: (§1) CHO-K1 cells stably expressing human M1 receptor with Aequorin (Perkin Elmer) were grown in F12 media, 10% FBS with 0.4 mg/mL geneticin and […]. Cells were grown to confluence and frozen down to be assayed at a later date. On the day of the experiment cells were thawed in a 37° C. water bath, resuspended in DMEM/HAM's F12 with HEPES (Invitrogen)+0.1% protease-free BSA (assay buffer), and spun down to remove freezing media. After centrifugation, supernatant was removed and 12 mL of assay buffer was added. Coelenterazine h (Promega) was added to the cells at a final concentration of 5 uM and incubated for 4 hours at room temperature in the dark. Compound master plate-96 deep well (Corning) were formatted in a 8-point DRC in assay buffer with 0.2% DMSO at a starting concentration of 60 uM (2×). After 4 hours of incubation, cells were plated at a concentration of 5×10^5 cells/well in 96 well white-walled, tissue culture-treated, clear-bottom plates (VWR). Compounds were added to the daughter plate, and cells plus compound were incubated at room temperature for 30 minutes in the dark.
(§2) Calcium flux was measured using the FlexStation 3 (Molecular Devices). To measure the antagonist dose-response, the EC80 of Acetylcholine was injected to the daughter plate using the automated compound transfer function of the Flex Station, and the increase in luminescence was measured over time. Antagonist activity was analyzed as a concentration dependent decrease in the EC80 acetylcholine response. Dose response curves were generated using Prism (GraphPad Software). The IC50 of the compounds was calculated from the dose response curve.
A general note: A change in cytosolic calcium serves as a functional read-out for many receptors and channels.

The next experiment addresses T2, M2 (Homo sapiens, UniProt P08172).
T2 sequence (P08172 1-466): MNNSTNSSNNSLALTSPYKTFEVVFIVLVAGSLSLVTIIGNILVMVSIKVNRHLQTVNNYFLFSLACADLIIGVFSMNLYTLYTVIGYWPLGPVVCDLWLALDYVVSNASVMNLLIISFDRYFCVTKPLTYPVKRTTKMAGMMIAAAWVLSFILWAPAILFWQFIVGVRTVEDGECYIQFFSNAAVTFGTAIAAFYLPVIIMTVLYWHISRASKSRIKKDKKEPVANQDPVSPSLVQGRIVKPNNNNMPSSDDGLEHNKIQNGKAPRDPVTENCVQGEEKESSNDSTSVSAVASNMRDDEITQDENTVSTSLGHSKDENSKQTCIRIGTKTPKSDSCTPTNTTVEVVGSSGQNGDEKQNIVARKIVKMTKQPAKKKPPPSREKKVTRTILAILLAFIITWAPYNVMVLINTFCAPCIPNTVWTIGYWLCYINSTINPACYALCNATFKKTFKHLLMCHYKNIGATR
Description: In vitro functional assay of muscarinic acetylcholine receptor activity, M2. The note with it: antagonist IC50 at M2; read-out: M2 IC50. The protocol: [The procedure below names another target; the source lists this target under the same test.] as §1, §2

A further experiment concerns the target M3 (Homo sapiens, UniProt P20309). Description: In vitro functional assay of muscarinic acetylcholine receptor activity, M3. As to conditions: antagonist IC50 at M3; read-out: M3 IC50. As for the experimental part:
[The procedure below names another target; the source lists this target under the same test.] as §1, §2

Setting [1] is: CHO-K1 cells stably expressing human M1 receptor with Aequorin, decrease in EC80 acetylcholine response, read-out: M1 IC50.

Chain of M3 (P20309 whole entry): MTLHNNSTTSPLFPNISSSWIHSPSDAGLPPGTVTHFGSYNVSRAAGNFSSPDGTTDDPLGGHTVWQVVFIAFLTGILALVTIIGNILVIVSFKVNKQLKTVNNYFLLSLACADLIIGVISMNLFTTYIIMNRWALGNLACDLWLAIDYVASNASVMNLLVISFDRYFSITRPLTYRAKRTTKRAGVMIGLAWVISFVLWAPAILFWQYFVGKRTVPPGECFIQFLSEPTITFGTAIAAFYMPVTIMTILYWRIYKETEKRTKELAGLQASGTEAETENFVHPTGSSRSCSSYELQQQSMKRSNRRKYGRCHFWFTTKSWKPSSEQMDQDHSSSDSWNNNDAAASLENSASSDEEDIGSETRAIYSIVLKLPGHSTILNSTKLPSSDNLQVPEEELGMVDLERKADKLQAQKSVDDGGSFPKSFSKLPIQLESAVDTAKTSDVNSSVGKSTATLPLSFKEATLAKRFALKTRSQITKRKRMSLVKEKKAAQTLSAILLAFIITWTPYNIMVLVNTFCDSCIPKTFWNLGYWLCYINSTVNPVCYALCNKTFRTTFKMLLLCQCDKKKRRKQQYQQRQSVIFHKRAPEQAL

Regarding `Cc1cc(F)cnc1N1C[C@H]2C[C@@H]1CN2C(=O)CCCc1cccc2ncccc12` (racemic) [Example 53, rac-1-((1R,4R)-5-(5-fluoro-3-methylpyridin-2-yl)-2,5-diazabicyclo[2.2.1]heptan-2-yl)-4-(quinolin-5-yl)butan-1-one], the IC50 at human M1 receptor (setting [1]) was 1000 to 10000 nM; at M2, 1000 to 10000 nM; at M3 it was more than 10000 nM. Consider `O=C(CCCc1cccc2ncccc12)N1C[C@H]2C[C@@H]1CN2c1ccc(F)cn1` (racemic) [Example 54, rac-1-((1R,4R)-5-(5-fluoropyridin-2-yl)-2,5-diazabicyclo[2.2.1]heptan-2-yl)-4-(quinolin-5-yl)butan-1-one], for which the IC50 is 100 to 1000 nM on human M1 receptor (setting [1]), 1000 to 10000 nM at M2 and more than 10000 nM at M3. Regarding `Cc1cc(F)cnc1N1CCN(C(=O)CCCc2cccc3ncccc23)[C@@H](C)C1` [Example 6, 1-[(2S)-4-(5-fluoro-3-methylpyridin-2-yl)-2-methylpiperazin-1-yl]-4-(quinolin-5-yl)butan-1-one], the IC50 on M2 and on M3 was 1000 to 10000 nM throughout.

As for `Cc1cc(F)cnc1N1CCN(C(=O)CCCc2cccc3nc(N)sc23)[C@@H](C)C1` [Example 20, 4-(2-amino-1,3-benzothiazol-7-yl)-1-[(2S)-4-(5-fluoro-3-methylpyridin-2-yl)-2-methylpiperazin-1-yl]butan-1-one], the IC50 on M2 and on M3 was 1000 to 10000 nM each time. Consider `N#Cc1ccc(N2C3CCC2CN(C(=O)CCNCc2c(F)ccc4ncnn24)C3)nc1` [Example 41, 6-(3-{3-[({6-fluoro-[1,2,4]triazolo[1,5-a]pyridin-5-yl}methyl)amino]propanoyl}-3,8-diazabicyclo[3.2.1]octan-8-yl)pyridine-3-carbonitrile], for which the IC50 on human M1 receptor was less than 100 nM.

For the compound `O=C(CCCc1cccc2ncccc12)N1CCN(c2ccc(F)cn2)CC1` [Example 51, 1-(4-(5-fluoropyridin-2-yl)piperazin-1-yl)-4-(quinolin-5-yl)butan-1-one], the results for the IC50 at M2 and on M3 were 1000 to 10000 nM and more than 10000 nM, respectively. With `CC1CN(c2ccc(F)cn2)CCN1C(=O)CCCc1cccc2ncccc12` (centres unmarked) [Example 58, 1-(4-(5-fluoropyridin-2-yl)-2-methylpiperazin-1-yl)-4-(quinolin-5-yl)butan-1-one], the IC50 at M2 and at M3 was 1000 to 10000 nM in each case. On to `Cc1cc(F)cnc1N1CCN(C(=O)CCCc2cccc3ncccc23)C(C)C1` (centres unmarked) [Example 59, 1-(4-(5-fluoro-3-methylpyridin-2-yl)-2-methylpiperazin-1-yl)-4-(quinolin-5-yl)butan-1-one], for which the IC50 on M2 is less than 100 nM; at M3, 100 to 1000 nM. With `CC1CN(C(=O)CCCc2cccc3ncccc23)CCN1c1ccc(F)cn1` (centres unmarked) [Example 61, 1-(4-(5-fluoropyridin-2-yl)-3-methylpiperazin-1-yl)-4-(quinolin-5-yl)butan-1-one], the IC50 at M2 and on M3 was 1000 to 10000 nM in each case.

For the compound `Cc1cc(F)cnc1N1CCN(C(=O)CCCc2cccc3ncccc23)CC1C` (centres unmarked) [Example 62, 1-(4-(5-fluoro-3-methylpyridin-2-yl)-3-methylpiperazin-1-yl)-4-(quinolin-5-yl)butan-1-one], the IC50 at M2 lay in the range of 100 to 1000 nM; at M3 it was 1000 to 10000 nM. In the case of `Cc1cc(F)cnc1N1CCN(C(=O)CCCc2cccc3ncccc23)[C@H](C)C1` [Example 66, (R)-1-(4-(5-fluoro-3-methylpyridin-2-yl)-2-methylpiperazin-1-yl)-4-(quinolin-5-yl)butan-1-one], the IC50 at M2 and at M3 was 100 to 1000 nM in each case. As to `C[C@@H]1CN(c2ncc(F)cc2Cl)CCN1C(=O)CCCc1cccc2ncccc12` [Example 80, (R)-1-(4-(3-chloro-5-fluoropyridin-2-yl)-2-methylpiperazin-1-yl)-4-(quinolin-5-yl)butan-1-one], the IC50 on M2 and on M3 was 1000 to 10000 nM each time.

As to `Cc1cc(F)cnc1N1CCN(C(=O)CCCc2cccc3ncoc23)[C@@H](C)C1` [Example 83, (S)-4-(benzo[d]oxazol-7-yl)-1-(4-(5-fluoro-3-methylpyridin-2-yl)-2-methylpiperazin-1-yl)butan-1-one], the IC50 at M2 and at M3 was 1000 to 10000 nM throughout.

Turning to `N#Cc1cc(N2CCN(C(=O)CCS(=O)(=O)c3cccc4ncsc34)CC2)ccn1` [Example 100, 4-(4-(3-(benzo[d]thiazol-7-ylsulfonyl)propanoyl)piperazin-1-yl)picolinonitrile], the results for the IC50 on M2 and at M3 were more than 10000 nM and 1000 to 10000 nM, respectively.

For `O=C(CCNCc1cccc2ncsc12)N1CCN(c2ccc(C(F)(F)F)cn2)CC1` [Example 119, 3-{[(1,3-benzothiazol-7-yl)methyl)amino}-1-{4-[5-(trifluoromethyl)pyridin-2-yl]piperazin-1-yl}propan-1-one], the IC50 is 1000 to 10000 nM at human M1 receptor (setting [1]) and more than 10000 nM at M3. For `CC1CN(C(=O)CCS(=O)(=O)c2cccc3ncsc23)CC(C)N1c1ccc(C#N)cn1` (centres unmarked) [Example 128, 6-{4-[3-(1,3-benzothiazole-7-sulfonyl)propanoyl]-2,6-dimethylpiperazin-1-yl}pyridine-3-carbonitrile], the IC50 on M2 and on M3 was 1000 to 10000 nM each time. As for `CC1CN(c2ccc(C#N)cn2)CC(C)N1C(=O)CCS(=O)(=O)c1cccc2ncsc12` (centres unmarked) [Example 134, 6-{4-[3-(1,3-benzothiazole-7-sulfonyl)propanoyl]-3,5-dimethylpiperazin-1-yl}pyridine-3-carbonitrile], the 50% inhibitory concentration (IC50) on M2 and at M3 was more than 10000 nM each time. Regarding `Cc1ccc(N2C3CCC2CN(C(=O)CCOCc2cccn4ncnc24)C3)nn1` [Example 189, 1-[8-(6-methylpyridazin-3-yl)-3,8-diazabicyclo[3.2.1]octan-3-yl]-3-({[1,2,4]triazolo[1,5-a]pyridin-8-yl}methoxy)propan-1-one], the IC50 on human M1 receptor was 100 to 1000 nM. `O=Cc1ccc(N2C3CCC2CN(C(=O)CCOCc2cccn4ncnc24)C3)nc1` [Example 190, 6-{3-[3-({[1,2,4]triazolo[1,5-a]pyridin-8-yl}methoxy)propanoyl]-3,8-diazabicyclo[3.2.1]octan-8-yl}pyridine-3-carbaldehyde]: on human M1 receptor, the IC50 was less than 100 nM. On to `N#Cc1ccc(N2C3CCC2CN(C(=O)CCN(Cc2cccc4ncnn24)C2CCC2)C3)nc1` [Example 191, 6-(3-{3-[cyclobutyl({[1,2,4]triazolo[1,5-a]pyridin-5-yl}methyl)amino]propanoyl}-3,8-diazabicyclo[3.2.1]octan-8-yl)pyridine-3-carbonitrile], for which the IC50 on human M1 receptor (setting [1]) fell in the range of 1000 to 10000 nM.

For `O=C([C@H]1C[C@H](Nc2cccc3ncccc23)C1)N1CC2CCC(C1)N2c1ccncc1` [Example 196, N-[(1r,3r)-3-[8-(pyridin-4-yl)-3,8-diazabicyclo[3.2.1]octane-3-carbonyl]cyclobutyl]quinolin-5-amine], the IC50 on human M1 receptor (setting [1]) fell in the range of 1000 to 10000 nM.

As for `N#Cc1ccc(N2C3CCC2CN(C(=O)CCCc2cccn4ncnc24)C3)nc1` [Example 198, 6-[3-(4-{[1,2,4]triazolo[1,5-a]pyridin-8-yl}butanoyl)-3,8-diazabicyclo[3.2.1]octan-8-yl]pyridine-3-carbonitrile], on human M1 receptor, the IC50 is less than 100 nM. Consider `N#Cc1ccc(N2C3CCC2CN(C(=O)CCCc2cccc4ncnn24)C3)nc1` [Example 199, 6-[3-(4-{[1,2,4]triazolo[1,5-a]pyridin-5-yl}butanoyl)-3,8-diazabicyclo[3.2.1]octan-8-yl]pyridine-3-carbonitrile], for which the IC50 at human M1 receptor was less than 100 nM.

As a reminder, the IC50 is the concentration that gives 50% inhibition.
